These results are taken from patent publication US20130310407A1, “COMBINATIONS COMPRISING MACITENTAN FOR THE TREATMENT OF GLIOBLASTOMA MULTIFORME” (ACTELION PHARMACEUTICALS LTD., priority 2011, published 2013).

In assay [1] the test system is phosphorylated AKT and MAPK. The experiment in a line: Immunohistochemistry of tumors using antibodies against phosphorylated AKT and MAPK. To be noted: tumors of treated animals, Examples 1 and 2 (macitentan) and Example 3 (atrasentan, zibotentan). Format: in vivo, mice. An excerpt: Suppression of survival and proliferation pathways sensitizes cells to chemotherapy and could be the reason for the high effectiveness of macitentan in combination with chemotherapy.

Assay [2] relates to LN229 human glioblastoma cells. The experiment in a line: LN229 human glioblastoma cells stereotactically injected into nude mice brain: treatment with macitentan and paclitaxel (Example 2). Format: in vivo. To be noted: nude mice with intracerebral LN229, paclitaxel 8.5 mg/kg intraperitoneal weekly, macitentan 10 mg/kg oral daily. Here is the method: (§1) Forty-eight (48) female Swiss Nude mice were obtained from Charles River (France). […] Animal experiments were performed according to the European ethical guidelines of animal experimentation.

Assay [3] concerns LN229 human glioblastoma cells. The experiment in a line: LN229 human glioblastoma cells stereotactically injected into nude mice brain: treatment with macitentan and temozolomide (Example 1). To be noted: nude mice with intracerebral LN229; treatment from two weeks after injection; temozolomide 7.5 mg/kg oral daily one week on/two weeks off; macitentan 10 mg/kg oral daily; day 100. Format: in vivo. Here is the method:
as §1
The mice were monitored daily and euthanized when they developed neurologic symptoms or became moribund. Days of survival were recorded and brain tissues were harvested and processed for histologic examinations. The experiment was terminated on day 100.

For `CCCCN(CCCC)C(=O)CN1C[C@H](c2ccc3c(c2)OCO3)[C@@H](C(=O)O)[C@@H]1c1ccc(OC)cc1` [Atrasentan, atrasentan], the “reduction of phosphorylated AKT and MAPK in tumors (immunohistochemistry)” value (“reduction of phosphorylated AKT and MAPK” below) in assay [1] was “much less prominent”.

As to `COc1nc(C)cnc1NS(=O)(=O)c1cccnc1-c1ccc(-c2nnco2)cc1` [Zibotentan, zibotentan], in assay [1], the “reduction of phosphorylated AKT and MAPK” value is “much less prominent”.

For the molecule `CC(=O)O[C@H]1C(=O)[C@@]2(C)[C@H]([C@H](OC(=O)c3ccccc3)[C@]3(O)C[C@H](OC(=O)[C@H](O)[C@@H](NC(=O)c4ccccc4)c4ccccc4)C(C)=C1C3(C)C)[C@]1(OC(C)=O)CO[C@@H]1C[C@@H]2O` [PTL, paclitaxel], the “survival after 70 days” value in assay [2] is listed as “about 60%”. Turning to `CCCNS(=O)(=O)Nc1ncnc(OCCOc2ncc(Br)cn2)c1-c1ccc(Br)cc1` [macitentan], in assay [1], the “reduction of phosphorylated AKT and MAPK” value is “strong reduction of both proteins”. Besides, the “survival after 70 days” value in assay [2] is given as “about 60%”. The “survival rate after 100 days” value in assay [3] is recorded as “about 40%”.

`Cn1nnc2c(C(N)=O)ncn2c1=O` [TMZ, temozolomide]: in assay [3], the “survival rate after 100 days” value is on record as “about 40%”.
